Earlier results as cited in paper PMC8465315, “Molecular Umbrella as a Nanocarrier for Antifungals” (Molecules, 2021).

Design: method as in PMID 15593345
Details: in vitro; cited from earlier work

## C=C1C[C@H](N)[C@H](C(=O)O)C1 [BAY 10-8888]
  metabolism by liver microsomes: not metabolized
